Results from article PMC13172357 (Nature Communications, 2026).
“And” between values parts separate entries of the source, which are not always exact repeats. Equal values may be shown once.

Tests used:
Assay type in all cases: cell-based
USP7 [1] = target: T1, USP7 (Homo sapiens, UniProt Q93009); test: USP7 degradation, Western blot densitometry, Panc89 cells; conditions: for USP7 degradation (in words): 24 h; for DC50: read-out: DC50 (half-maximal degradation concentration)
T1 construct: allowed the analysis of endogenous USP7 degradation in both cell lines; endogenous in cells; host or cells: Panc89 (PDAC) and Ma-Mel-47 (melanoma) cells
Procedure: (§1) The melanoma cell line Ma-Mel-47 (established previously[57] from metastatic lesions from patient tumor tissues after written informed consent) and the PDAC cell line Panc89 (RRID: CVCL_4056, also referenced as T3M-4[58]) were cultured in a humidified incubator with 5% CO2 at 37 °C in RPMI1640 (Ma-Mel-47) / DMEM (Panc89) medium containing 10% (v/v) fetal calf serum (FCS) and penicillin/streptomycin (all Gibco, Thermo Fisher Scientific). Studies on human material were approved by the institutional review board. […] Testing for mycoplasma was performed by PCR monthly. To confirm cell identity, STR analysis was performed by the Microsynth Seqlab GmbH.
(§2) To prepare samples for Western blot analysis, cells were seeded in 6-well dishes the day before treatment to adhere at 70–80% confluency.
(§3) Cell pellets of all PDAC samples were lysed via adding a buffer containing 150 mM NaCl, 50 mM Tris/HCl (pH 7.4), 1% Triton X-100, 10 mM EDTA, 1 mM PMSF, 10 mM orthovanadate, and 1% aprotinin, incubating on ice for 1 h with vortexing every 15 minutes. Lysates were cleared of cell debris by centrifugation at 10,000 ×g at 4 °C for 10 min. […] Lysates were then clarified of cell debris by centrifugation at 13,000 ×g at 4 °C for 15 min. Thereafter, the total protein concentrations were either determined immediately or the protein extracts were stored at −20 or −80 °C. Pellets for samples shown in Fig. 6 and Supplementary Fig. 6 were lysed in 120 µL lysis buffer (50 mM Tris pH 8.0, 150 mM NaCl, 1% (v/v) IGEPAL, 0.5% (w/v) Na-deoxycholate, 0.1% (w/v) SDS) supplemented with 1x EDTA-free inhibitor protease cocktail (cOmplete, Roche) for 15 min at 4 °C. 0.2 µL Turbonuclease (Sigma Aldrich) and 5 mM MgCl2 were then added and lysates were incubated for 15 min at 4 °C. Cell debris was separated by centrifugation at 20,817 ×g for 15 min at 4 °C.
(§4) Protein concentrations of cell lysates were measured using the Pierce BCA Protein Assay (Thermo Fisher Scientific) or the Quick Start Bradford Protein Assay (Bio-Rad), following the manufacturers’ protocols. Measurements were recorded on Tecan Spark or Tecan Infinite M200 plate readers. Lysates were kept on ice throughout the entire process.
(§5) To separate proteins via SDS-PAGE, 10-20 µg of protein in lysis buffer was diluted with SDS-PAGE loading buffer (for most blots containing DTT or 2-mercaptoethanol) and denatured at 95 °C for 5 min. Protein separation was conducted at 95–110 V using the Mini-PROTEAN electrophoresis system (Bio-Rad). Proteins were then transferred to PVDF or nitrocellulose membranes using the Trans-Blot Turbo system (Bio-Rad) with the Trans-Blot Turbo RTA Kit for PVDF membranes. Prior to transfer, membranes were activated by soaking in 100% ethanol (for PVDF) or distilled water (for nitrocellulose) and proteins were transferred using the Mixed MW or the standard (1.0 A, 25 V, 30 min) protocol.
(§6) After transfer, membranes were blocked in 5% (w/v) milk/TBS-T for 1 h and then washed three times for 10 min with TBS-T. They were incubated overnight at 4 °C with the primary antibody in 5% (w/v) milk/TBS-T or 1% (w/v) BSA/TBS-T. Membranes were then washed three times for 10 min with TBS-T and incubated with horseradish peroxidase (HRP)-conjugated secondary antibodies in a solution of 5% (w/v) BSA/TBS-T or 1% (w/v) milk/TBS-T for 1 h at room temperature. PBS-T was used for blots shown in Fig. 6 and Supplementary Fig. 6.
(§7) Membranes were incubated with Clarity Western ECL substrate (Bio-Rad) for PDAC samples or Pierce ECL Western Blotting-Substrate (Thermo Fisher Scientific) for melanoma. Chemiluminescent signals were detected with a ChemiDoc Imaging System (Bio-Rad) for PDAC samples or with a ECL Chemostar Imager (Intas Science Imaging) for melanoma samples.
(§8) Densitometric quantification of band intensities for Fig. 2c, d was performed using the ImageJ software.

USP7 [2] = target: T1, USP7; test: USP7 degradation, Western blot densitometry, Ma-Mel-47 cells; conditions: for USP7 levels in time course (in words): over 24 h; for USP7 degradation (in words): 24 h; for DC50: read-out: DC50 (half-maximal degradation concentration)
Procedure: as §1, §2, §3, §4, §5, §6, §7, §8

[3] = target: T2, NanoLuc-USP7 and HaloTag-VHL (Homo sapiens, UniProt P40337+Q93009); test: Cellular ternary complex formation assay (NanoBRET), HEK293T cells; conditions: for Ternary complex induction (in words): NanoBRET
T2 construct: expressed in transfected cells; host or cells: HEK293T, transient transfection (FuGENE HD)
Procedure: The assay was performed as described step-by-step elsewhere. USP7 (NanoLuc-USP7) and VHL (HaloTag-VHL) were cloned in frame with N-terminal NanoLuc or HaloTag, respectively. For transfections, HEK293T cells were diluted in Opti-MEM medium without phenol red (Life Technologies) to 4×10^5 cells/mL and 9 µL were pipetted into each well of a white 384-well plate (Greiner 781207). 1 mL transfection mix was prepared containing 30 µL FuGENE HD (Promega, E2312) and 8 µL of each plasmid, incubated 20 min at RT and 1 µL were pipetted into each well leading to the total assay volume of 10 µL. […] 2 h prior to BRET measurements, the compounds were titrated to the cells using an Echo acoustic dispenser and the cells were incubated further at 37 °C and 5% CO2 to allow complex formation. NanoBRET Nano-Glo substrate and Extracellular NanoLuc Inhibitor (Promega, N2540) were then added as per the manufacturer’s protocol, and filtered luminescence was recorded on a PHERAstar FSX plate reader (BMG Labtech) equipped with a luminescence filter pair (donor: 450 nm BP filter; acceptor: 610 nm LP filter). Data were analyzed using GraphPad Prism 10 software.

[4] = Panc89, 24 h, Western blot densitometry
[5] = Ma-Mel-47, 24 h, Western blot densitometry

T1 sequence (Q93009 whole entry): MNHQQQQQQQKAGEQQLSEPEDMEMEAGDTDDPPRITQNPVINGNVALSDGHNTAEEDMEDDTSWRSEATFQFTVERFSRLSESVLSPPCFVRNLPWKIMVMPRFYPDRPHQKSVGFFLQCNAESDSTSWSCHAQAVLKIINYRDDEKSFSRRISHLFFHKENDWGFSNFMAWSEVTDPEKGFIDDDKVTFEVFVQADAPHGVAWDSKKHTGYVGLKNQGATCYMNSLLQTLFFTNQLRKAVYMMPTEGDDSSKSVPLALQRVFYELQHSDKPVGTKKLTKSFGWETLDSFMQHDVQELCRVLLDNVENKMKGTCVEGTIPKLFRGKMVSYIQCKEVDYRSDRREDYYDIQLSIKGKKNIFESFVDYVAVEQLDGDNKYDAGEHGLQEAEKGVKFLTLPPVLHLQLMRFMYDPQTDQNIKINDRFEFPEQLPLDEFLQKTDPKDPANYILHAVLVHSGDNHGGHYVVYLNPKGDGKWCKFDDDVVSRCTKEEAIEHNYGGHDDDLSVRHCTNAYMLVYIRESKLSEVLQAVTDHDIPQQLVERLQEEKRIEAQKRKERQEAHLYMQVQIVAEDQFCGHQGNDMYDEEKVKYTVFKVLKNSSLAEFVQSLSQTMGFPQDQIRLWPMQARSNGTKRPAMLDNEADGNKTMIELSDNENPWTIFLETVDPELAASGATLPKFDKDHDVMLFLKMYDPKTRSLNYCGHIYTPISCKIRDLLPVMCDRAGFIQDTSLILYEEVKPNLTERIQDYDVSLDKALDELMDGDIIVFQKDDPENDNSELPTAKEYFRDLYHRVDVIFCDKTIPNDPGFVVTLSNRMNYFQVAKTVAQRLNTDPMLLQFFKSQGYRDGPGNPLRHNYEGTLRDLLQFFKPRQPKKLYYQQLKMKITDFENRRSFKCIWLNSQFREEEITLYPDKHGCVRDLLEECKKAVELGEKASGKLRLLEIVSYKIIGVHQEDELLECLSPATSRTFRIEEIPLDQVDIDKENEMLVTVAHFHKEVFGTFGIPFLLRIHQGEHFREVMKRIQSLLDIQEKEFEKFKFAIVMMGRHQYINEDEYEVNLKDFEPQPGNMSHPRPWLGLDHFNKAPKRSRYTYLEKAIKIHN
T2 sequence (Q93009 whole entry): as above
T2 sequence (P40337 whole entry): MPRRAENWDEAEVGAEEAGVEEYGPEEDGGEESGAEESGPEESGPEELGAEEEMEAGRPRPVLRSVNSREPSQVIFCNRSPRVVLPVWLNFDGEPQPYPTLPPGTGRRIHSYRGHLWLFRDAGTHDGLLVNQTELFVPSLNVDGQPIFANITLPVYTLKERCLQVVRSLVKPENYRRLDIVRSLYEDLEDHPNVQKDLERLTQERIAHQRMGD
T2 sequence (Q15370 whole entry partner): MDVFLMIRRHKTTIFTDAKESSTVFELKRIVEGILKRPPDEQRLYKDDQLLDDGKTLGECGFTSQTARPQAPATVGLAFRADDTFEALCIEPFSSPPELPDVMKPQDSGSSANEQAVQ
T2 sequence (Q15369 whole entry partner): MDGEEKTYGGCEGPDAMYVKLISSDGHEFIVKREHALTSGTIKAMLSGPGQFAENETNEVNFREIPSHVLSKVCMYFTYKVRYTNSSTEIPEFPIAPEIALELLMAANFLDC

Row | Compound | USP7 levels in time course (in words) (USP7 [1]; Panc89, 1 µM, over 24 h) | USP7 levels in time course (in words) (USP7 [2]; Ma-Mel-47, 1 µM) | Ternary complex induction (in words) [3] | USP7 degradation (in words) (USP7 [1]; Panc89, 5 µM, Western blot) | Concentration of near complete degradation of USP7 (USP7 [1]; Panc89, 24 h) [nM] | Dmax (USP7 [1]; [4]) [%] | DC50 (USP7 [1]; [4]) [nM] | USP7 degradation (in words) (USP7 [2]; Ma-Mel-47, 1 µM) | DC50 (USP7 [2]; [5]) [nM] | EC50 ([3]; compound 2 h prior BRET measurement, read-out: EC50 (half-maximal ternary complex formation concentration)) [nM] | Time after which USP7 degradation was observed (USP7 [1]; Panc89, 1 µM) | USP7 degradation (in words) (USP7 [1]; Panc89, increasing concentrations) | Time after which USP7 degradation was observed (USP7 [2]; Ma-Mel-47, 1 µM) [h] | USP7 degradation (in words) (USP7 [2]; Ma-Mel-47, 5 µM, Western blot) | Dmax (USP7 [2]; [5]) [%]
1 | Cc1ncsc1-c1ccc(CNC(=O)[C@@H]2C[C@H](O)CN2C(=O)[C@@H](NC(=O)[C@H]2CC[C@H](C(=O)N3CCN(c4ccc(-n5ncc6c(=O)n(CC7(O)CCN(C(=O)C[C@@H](C)c8ccccc8)CC7)cnc65)cc4)CC3)CC2)C(C)(C)C)cc1 [NK245] | did not reduce protein levels | did not reduce protein levels | neither the negative control NK245 nor the VHL ligand VH298 induced a ternary complex | – | – | – | – | – | – | – | – | – | – | – | –
2 | Cc1ncsc1-c1ccc([C@H](C)NC(=O)[C@@H]2C[C@@H](O)CN2C(=O)[C@@H](NC(=O)[C@H]2CC[C@H](C(=O)N3CCN(c4ccc(-n5ncc6c(=O)n(CC7(O)CCN(C(=O)C[C@@H](C)c8ccccc8)CC7)cnc65)cc4)CC3)CC2)C(C)(C)C)cc1 [NK250] | – | weak effects | – | complete degradation | ~100 | 98 | 8 | not able to fully degrade USP7 | 154 ± 38 | 58 | – | – | – | – | –
3 | Cc1ncsc1-c1ccc([C@H](C)NC(=O)[C@@H]2C[C@@H](O)CN2C(=O)[C@@H](NC(=O)C23C4C5C2C2C3C4C52C(=O)N2CCC(C3CCN(c4ccc(-n5ncc6c(=O)n(CC7(O)CCN(C(=O)C[C@@H](C)c8ccccc8)CC7)cnc65)cc4)CC3)CC2)C(C)(C)C)cc1 (stereo partly shown) [NK266] | – | – | did not increase the BRET signal to the same level | – | – | – | 49 | – | 29 | – | 16 h and 16 to 24 h | near complete degradation of USP7 | 16 | higher potency | 94
